According to patent US8362070B2, “Application of puerarin in the preparation of P2X3 mediated drugs for pain/nervous system diseases” (Nanchang University, priority 2009, dated 2013):

Assays:
P2X3 receptor = assay: Immunohistochemistry of P2X3 receptor expression in skin nerve ending of rats with back burn; assay type: in vivo, rat; details: superficial second degree back burn + puerarin injection i.v. daily for three days; saline+burn 152.63±22.62, sham 118.76±18.48
[1] = system: rats that suffer from neuropathic pain (chronic constriction injury of sciatic nerve); assay: Mechanical hyperalgesia (mechanical withdrawal threshold, Von Frey) in rats with neuropathic pain (CCI); assay type: in vivo, rat
Experimental: Male SD rats, 220-250 g were provided by the Department of Experimental Animals from the Medical College of Nanchang University. The rats were divided into five groups at random and 12 rats were included in each group. Experimental grouping: I (sham); II (puerarin); III (chronic constriction injuries, CCI); IV (CCI+puerarin); V (control); VI (CCI+Indo). The puerarin injection was dissolved in physiological saline and the concentration was 50 mg/mL. […]
Thiopental sodium was used to anesthetize the rats (30 mg/kg, intraperitoneal injection), and the skin in the outer side of right thighs of the rats was cut open under sterile conditions, and blunt dissection was carried out to isolate the sciatic nerves, then the sciatic nerves were slightly ligated with 4-0 chromicized catgut and four ligations were carried out in total, and an interval of about 1 mm was left between two knots. […] The rats were raised in separate cages after the operation, and mechanical withdrawal threshold and thermal withdrawal latency were determined before the operation (0 d) and 1, 3, 5, 7, 9, 11, 14 days after the operations respectively (Time for the determination is set at 10[…]00-14[…]100 everyday, and the room temperature was maintained at 22±0.5° C.). […]

O=c1c(-c2ccc(O)cc2)coc2c([C@@H]3O[C@H](CO)[C@@H](O)[C@H](O)[C@H]3O)c(O)ccc12 [puerarin]
gray scale values (average optical density) of P2X3 immunologically positive nerve ending in the skin (P2X3 receptor): 130.42±13.35
mechanical withdrawal threshold (MWT) in comparison with group III (CCI) ([1]; CCI rats + puerarin, seven days after ligation, p<0.01): significantly increased
mechanical withdrawal threshold, difference among sham, puerarin alone and control ([1]; puerarin alone, no CCI, p>0.05): not significant
